# Earlier results, collected in publication PMC4494773, “Design, synthesis, antiviral and cytotoxic evaluation of novel acyclic phosphonate nucleotide analogues with a 5,6-dihydro-1H-[1,2,3]triazolo[4,5-d]pyridazine-4,7-dione system” (Monatshefte Fur Chemie, 2014).
# Legend:
# [1] = system: HIV-1; set-up: method as in PMID 12901908
# [2] = system: viral helicase from HCV; set-up: method as in PMID 11959550
# [3] = system: viral helicase from West Nile Virus (WNV); set-up: method as in PMID 11959550
SMILES,antiviral activity against HIV-1 [1],antiviral activity by inhibition of a viral helicase [2],antiviral activity by inhibition of a viral helicase [3]
NC(=O)c1cn(C2CC(CCP(=O)(O)O)CC2O)nn1 (stereo not drawn) [compound 2],displayed antiviral activity,,
COC1C(O)C(CO)OC1n1cnc2c(=O)[nH][nH]c(=O)c21 (stereo not drawn) [compound 6],,exhibited antiviral activity by inhibition of a viral helicase,exhibited antiviral activity by inhibition of a viral helicase
NC(=O)c1nnn(C2CC(CO)CC2O)c1N (stereo not drawn) [compound 1],displayed antiviral activity,,
O=c1[nH][nH]c(=O)c2c1ncn2C1OC(CO)C(O)C1O (stereo not drawn) [compound 5],,exhibited antiviral activity by inhibition of a viral helicase,exhibited antiviral activity by inhibition of a viral helicase
